Two compounds from US20240260573A1, “HEAT TOLERANCE-INDUCING AGENT FOR PLANTS AND METHOD FOR INDUCING HEAT TOLERANCE OF PLANTS” (AGC Inc., priority 2021, published 2024) can be followed below.

Data set [1] in a line: Measurement of active ingredient support ratio (solvent extraction / gas chromatography). In kind it is physicochemical. On the procedure:
First, 5 g of a mixed solvent of chloroform:methanol=9:1 (volume ratio) was added to the vial containing the sample, and the mixture was stirred for one minute to extract the supported 2-hexenal. Hexadecane was then added as an internal standard, and the resulting mixture was filtered. The thus obtained filtrate (the extract solution containing the internal standard) was analyzed by gas chromatography, and the amount (mg) of supported 2-hexenal was calculated using a calibration curve prepared in advance using hexadecane as an internal standard. The support ratio (%) of 2-hexenal within 100% of the sample was determined from the calculated supported amount (mg) and the mass of the sample inside the vial.
With the exception that chloroform was added to the vial containing the sample to dissolve the sample, hexadecane was added to the resulting solution as an internal standard, and analysis was then conducted by gas chromatography (7890A apparatus manufactured by Agilent Technologies, Inc.), the support ratio (%) of 2-hexenal within 100% of the sample was determined in the same manner as that described above in [Evaluation 1a].
In Example 12, because 2-hexenal was used alone, the initial 2-hexenal support ratio was deemed to be 100%.
With the exception of using 3-hepten-2-one instead of 2-hexenal as the active ingredient, evaluations were conducted in the same manner as Example 1. […]

Data set [2] can be described thus: Measurement of active ingredient retention rate after 7 days open storage at 23° C. or 50° C. The conditions noted are these: for residual active ingredient after storage (in words): after 7 days storage at either 23° C. or 50° C. In kind it is physicochemical. Here is the method:
The vial containing the sample was stored, without a lid attached, in an environment at either 23° C. or 50° C. for a period of 7 days. Following this storage period, the support ratio (%) of 2-hexenal was determined in the same manner as that described above in [Evaluation 1a].
Based on the measurement results, the 2-hexenal retention rates following storage at 23° C. and at 50° C. were each calculated using the formula below. In the formula, the [initial 2-hexenal content] represents the value determined in the above “Measurement of 2-Hexenal Support Ratio”.
2-Hexenal retention rate (%)=2-hexenal support ratio (%) after storage/initial 2-hexenal support ratio (%)×100
The vial containing the sample was stored in an environment at either 23° C. or 50° C. for a period of 7 days. Following this storage period, the support ratio (%) of 2-hexenal was determined in the same manner as that described above in [Evaluation 2a].
Based on the measurement result, the 2-hexenal retention rate (%) was determined in the same manner as that described above in [Evaluation 1b].
The vial containing the sample was stored in an environment at either 23° C. or 50° C. for a period of 7 days. Following this storage period, the sample mass (g) remaining in the vial was measured, and this value was deemed the 2-hexenal support ratio (%) after storage.
With the exception of using 3-hepten-2-one instead of 2-hexenal as the active ingredient, evaluations were conducted in the same manner as Example 1.
An agent prepared by mixing trioxane and 3-hepten-2-one (in a mass ratio of 100:0.35) and then freeze drying the mixture was used as a heat tolerance-inducing agent, and evaluations were conducted in the same manner as Example 11.
Example 15 used 3-hepten-2-one alone as a heat tolerance-inducing agent. Evaluations were conducted in the same manner as Example 12.

The mark [3] stands for this setting: sample for 23° C. storage, before storage.
Where [4] appears, read: sample for 50° C. storage, before storage.

On to `CCCC=CC(C)=O` [Example 15, 3-hepten-2-one], for which, in data set [1] (3-hepten-2-one used alone, evaluated as Example 12 (deemed 100%)), the 3-hepten-2-one support ratio amounted to 100%. In data set [2] (23° C., 7 days), the “3-hepten-2-one support amount, Storage at 23° C., After 7 days” value worked out at 0 mg. Moreover, the “3-hepten-2-one support amount, Storage at 50° C., After 7 days” value in data set [2] (50° C., 7 days) is given as 0 mg. Also, in data set [2] (after 7 days storage at 23° C.), the “3-hepten-2-one retention rate 23° C.” value came out at 0%. For the same compound, the “3-hepten-2-one retention rate 50° C.” value in data set [2] (after 7 days storage at 50° C.) turned out to be 0%. Further, in data set [2], the “residual active ingredient after storage (in words)” value is on record as “no residual active ingredient was retained”. In addition, the “3-hepten-2-one support amount, Storage at 23° C., Initial” value in data set [2] (setting [3]) amounted to 11.5 mg. Further, the “3-hepten-2-one support amount, Storage at 50° C., Initial” value in data set [2] (setting [4]) is 10.7 mg.

On to `CCCC=CC=O` [Example 12, 2-hexenal], for which, in data set [1] (2-hexenal used alone, initial support ratio deemed to be 100%), the 2-hexenal support ratio was 100%. Besides, in data set [2] (23° C., 7 days, vial without lid), the “2-hexenal support amount, Storage at 23° C., After 7 days” value is reported as 0 mg. In addition, the “2-hexenal support amount, Storage at 50° C., After 7 days” value in data set [2] (50° C., 7 days, vial without lid) was 0 mg. The “2-hexenal retention rate 23° C.” value in data set [2] (after 7 days storage at 23° C.) turned out to be 0%. Also, the “2-hexenal retention rate 50° C.” value in data set [2] (after 7 days storage at 50° C.) was 0%. The “residual active ingredient after storage (in words)” value in data set [2] is listed as “no residual active ingredient was retained”. Also, the “2-hexenal support amount, Storage at 23° C., Initial” value in data set [2] (setting [3]) is recorded as 13 mg. Also, the “2-hexenal support amount, Storage at 50° C., Initial” value in data set [2] (setting [4]) was 12.5 mg.
